Earlier results in patent US20040115263A1, “Use of bupropion for treating restless legs syndrome” (priority 2002, published 2004).

Tests used:
[1] = RLS patients

SMILES: CC(C)C[C@H]1C(=O)N2CCC[C@H]2[C@]2(O)O[C@](NC(=O)[C@@H]3C=C4c5cccc6[nH]c(Br)c(c56)C[C@H]4N(C)C3)(C(C)C)C(=O)N12 [Bromocriptine]
- side effects reported [1]: transient nasal stuffiness and lightheadedness in one patient

SMILES: N[C@@H](Cc1ccc(O)c(O)c1)C(=O)O [L-dopa]
- efficacy in treating RLS (L-dopa given with a peripheral carboxylase inhibitor at a 10:1 ratio, patients): effective
- cases in which augmentation is a complicating feature (human, in vivo): 65-80%
